Legend:
isolated rat aorta = test: Vasodilating effect on blood vessel excised from rats (methoxamine-constricted aorta); details: isolated rat aorta constricted with methoxamine (3 μM); read-out: Concentration for inhibition of constriction induced by methoxamine in rat arota (IC50)
Excerpt: Rats (350˜450 g, obtained from the Experimental Animal Team of the Korea Research Institute of Chemical Technology) were knocked to be unconscious by hitting the occipital region, sacrificed by cervical dislocation, and underwent thoracotomy. After being quickly removed, the thoracic aorta was deprived of the adipose tissue and cut into aortic rings of 3 mm width. The aorta was lightly rubbed with cotton club soaked in a modified Krebs Henseleit buffer (Physiological salt solution) to remove the inner epithelial layer therefrom. While being hung in an organ bath containing a physiological buffer, the vascular smooth muscle was allowed to equilibrate under a resting tension of 2 g and then, stand for 1 hour at 37° C. for stabilization, supplying a carbogen consisting of 95% O2˜5% CO2.
Thereafter, the vascular smooth muscle was constricted with 10^−5M phenylephrine and washed several times with physiological saline solution. The said procedure was repeated again to ensure the stable reactivity of vascular smooth muscle to repetitive constriction/relaxation.
Thereafter, 3×10^−6 M methoxamine was applied to induce an intensive constriction in the vascular smooth muscle. When the vasoconstriction induced by the methoxamine was reached and maintained to a maximum, test compounds and control material was cumulatively added to the organ bath in concentration of 1, 3, 10 and 30 μM, respectively, to examine the vasodilating effect. Cromakalim, BMS-180448 (the compound of formula 4) and BMS-191095 (the compound of formula 5), known to be the first generation KATP opener with potent vasodilating effect were used as control materials.
The change rate of constriction by the addition of the drugs compared to the maximal constriction induced by methoxamine was calculated to plot a concentration-relaxation response curve. Through a least linear regression analysis, IC50 that the drug concentration at which the vascular tissue is relaxed to 50% extent of the maximal constriction, was obtained for each drug.

cortical neuron cells = test: Protective effect on iron-induced neuronal cell injury (LDH release); type: cell-based; details: FeSO4 50 μM; for protective effect on neuron cell: Inhibition (%, 30 μM compound addition): LDH reduction vs control; for IC50: LDH
Experimental: From the brains of 17˜18 day-old embryos, cortical neuron cells were isolated and then, cultured at 37° C. for 7˜9 days in a 5% CO2 incubator. The said cortical cell cultures were washed twice with MEM (Minimum essential medium) to reduce the serum level to 0.2%. […] Then, the compound of the said concentration was pre-treated for 30 min, respectively. For the experiment, test compound was dissolved in DMSO and diluted in a medium. At this time, the final concentration of DMSO was not allowed to exceed 0.1%. For control group, only vehicle was applied.
After the said pre-treatment, FeSO4 was added to the medium for a final concentration to be 50 μM. The medium was cultured in CO2 incubator for 24 hours. During the incubation, lactate dehydrogenase (LDH) was released by iron. The serum level of lactate dehydrogenase released into the medium was measured to assess necrosis of neuronal cell by the oxidative toxicity of iron. The protective effect on neuron cells of the test compounds was evaluated by calculating the LDH reduction rate of treatment-group compared with that of the control group.

[1] = Acute oral toxicity test in rats; details: SD, rat, in vivo, single oral dose, suspended in 0.5% methyl cellulose, read-out: lethal dose (LD50) for oral administration
Experimental: In this test, six-week old SPF SD rats were used with two rats assigned to each group. Each group was consisted of two rats. The compounds prepared in example 1, 7, 11, 17, 22, 24, 26, 28, 30, 32, 34, 42, 52, 54, 55, 56, 57, 59, 60, 61, 70, 75, 77, 79, 81, 83, 85, and 89 were suspended in 0.5% methyl cellulose, respectively. […] Also, hematological test and biochemical analysis were accomplished. After sacrificing the animals, autopsy was performed for macroscopic observations of the organs and tissues. As a result, there was no significant changes in clinical symptoms, body weight and mortalities. Also in hematology, serum chemistry parameters, macroscopic observation and drug-related changes were not observed.

| SMILES | IC50 (isolated rat aorta) [µM] | protective effect on neuron cell: Inhibition (%, 30 μM compound addition) (cortical neuron cells; 24 hours) [%] | IC50 (cortical neuron cells; Cortical neurone, 24 h) [µM] | IC50 (cortical neuron cells; 24 hours) [µM] | LD50 [1] [mg/kg] |
| --- | --- | --- | --- | --- | --- |
| CC1(C)Oc2ccc(C#N)cc2[C@H](N(Cc2ncc[nH]2)c2ccc(Cl)cc2)[C@H]1O [BMS-191095, reference compound] | 2.14 | – | – | – | – |
| CC1(C)Oc2ccc(C#N)cc2C(N2CCCC2=O)C1O (stereo not drawn) [Cromakalim, reference compound] | 0.067 | – | – | – | – |
| COC(OC)[C@@]1(C)Oc2ccc(N)cc2[C@@H](N(Cc2nnn(C)n2)c2ccc(Cl)cc2)[C@@H]1O [Example 10, (2S,3S,4R)-6-amino-4-[N-(4-chlorophenyl)-N-(2-methyl-2H-tetrazol-5-ylmethyl)amino]-3-hydroxy-2-methyl-2-dimethoxymethyl-3,4-dihydro-2H-1-benzopyran] | > 30 | 103 | 2.2 | – | – |
| COC(OC)[C@@]1(C)Oc2ccc(N)cc2[C@@H](N(Cc2nnn(C)n2)c2ccc(C)cc2)[C@@H]1O [Example 24] | > 30 | 98 | – | 6.1 | – |
| COC(OC)[C@@]1(C)Oc2ccc([N+](=O)[O-])cc2[C@H](N(Cc2nnn(C)n2)c2cccc(Cl)c2)[C@H]1O [Example 25, (2S,3R,4S)-6-nitro-4-[N-(3-chlorophenyl)-N-(2-methyl-2H-tetrazol-5-ylmethyl)amino]-3-hydroxy-2-methyl-2-dimethoxymethyl-3,4-dihydro-2H-1-benzopyran] | 27.4 | 83 | – | – | – |
| COC(OC)[C@@]1(C)Oc2ccc([N+](=O)[O-])cc2[C@H](N(Cc2nnn(C)n2)c2ccc(C(F)(F)F)cc2)[C@H]1O [Example 33, (2S,3R,4S)-6-nitro-4-[N-(4-trifluoromethylphenyl)-N-(2-methyl-2H-tetrazol-5-ylmethyl)amino]-3-hydroxy-2-methyl-2-dimethoxymethyl-3,4-dihydro-2H-1-benzopyran] | – | 91 | 6 | – | – |
| COC(OC)[C@@]1(C)Oc2ccc(N)cc2[C@H](N(Cc2nnn(C)n2)c2ccccc2)[C@H]1O [Example 55, (2S,3R,4S)-6-amino-4-[N-(2-methyl-2H-tetrazol-5-ylmethyl)phenylamino]-3-hydroxy-2-methyl-2-dimethoxymethyl-3,4-dihydro-2H-1-benzopyran] | – | – | – | – | > 2000 |
| COC(OC)[C@@]1(C)Oc2ccc(N)cc2[C@H](N(Cc2ccccc2)Cc2nnn(C)n2)[C@H]1O [Example 57, (2S,3R,4S)-6-amino-4[N-benzyl-N-(2-methyl-2H-tetrazol-5-ylmethyl)amino]-3-hydroxy-2-methyl-2-dimethoxymethyl-3,4-dihydro-2H-1-benzopyran] | – | 94 | 3.1 | – | > 2000 |
| COC(OC)[C@@]1(C)Oc2ccc(N)cc2[C@H](N(Cc2nnn(C)n2)c2ccc(O)cc2C)[C@H]1O [Example 65, (2S, 3R,4S)-6-amino-4-[N-(2methyl-4-hydroxyphenyl)-N-(2-methyl-2H-tetrazol-5-ylmethyl)amino]-3-hydroxy-2-methyl-2-dimethoxymethyl-3,4-dihydro-2H-1-benzopyran] | > 30 | – | – | – | – |
| COC(OC)[C@@]1(C)Oc2ccc(N)cc2[C@H](N(Cc2nnn(C)n2)c2cc(C)ccc2O)[C@H]1O [Example 71, (2S,3R,4S)-6-amino-4-[N-(2-hydroxy-5-methylphenyl)-N-(2-methyl-2H-tetrazol-5-ylmethyl)amino]-3-hydroxy-2-methyl-2-dimethoxymethyl-3,4-dihydro-2H-1-benzopyran] | – | 89 | < 1 | 0.9 | – |
| COC(OC)[C@@]1(C)Oc2ccc([N+](=O)[O-])cc2[C@@H](N(Cc2nnn(C)n2)c2ccc(C(F)(F)F)cc2)[C@@H]1O [Example 74, (2S,3S,4R)-6-nitro-4-[N-(4-trifluoromethylphenyl)-N-(2-methyl-2H-tetrazol-5-ylmethyl)amino]-3-hydroxy-2-methyl-2-dimethoxymethyl-3,4-dihydro-2H-1-benzopyran] | – | 90 | 5.3 | – | – |
| COC(OC)[C@]1(C)Oc2ccc([N+](=O)[O-])cc2[C@@H](N(Cc2nnn(C)n2)c2ccc(C(F)(F)F)cc2)[C@@H]1O [Example 76, (2R,3S,4R)-6-nitro-4-[N-(4-trifluoromethylphenyl)-N-(2-methyl-2H-tetrazol-5-ylmethyl)amino]-3-hydroxy-2-methyl-2-dimethoxymethyl-3,4-dihydro-2H-1-benzopyran] | – | 52 | 5.7 | – | – |
| COC(OC)[C@]1(C)Oc2ccc([N+](=O)[O-])cc2[C@H](N(Cc2nnn(C)n2)c2ccc(C(F)(F)F)cc2)[C@H]1O [Example 78, (2R,3R,4S)-6-nitro-4-[N-(4-trifluoromethylphenyl)-N-(2-methyl-2H-tetrazol-5-ylmethyl)amino]-3-hydroxy-2-methyl-2-dimethoxymethyl-3,4-dihydro-2H-1-benzopyran] | – | 69 | 4.4 | – | – |
| COC(OC)[C@]1(C)Oc2ccc(N)cc2[C@H](N(Cc2nnn(C)n2)c2ccc(C(F)(F)F)cc2)[C@H]1O [Example 79, (2R,3R,4S)-6-amino-4-[N-(4-trifluoromethylphenyl)-N-(2-methyl-2H-tetrazol-5-ylmethyl)amino]-3-hydroxy-2-methyl-2-dimethoxymethyl-3,4-dihydro-2H-1-benzopyran] | – | 107 | < 2 | 1.7 | > 2000 |
| COC(OC)[C@@]1(C)Oc2ccc([N+](=O)[O-])cc2[C@@H](N(Cc2nnn(C)n2)c2ccc(OC(F)(F)F)cc2)[C@@H]1O [Example 80, (2S,3S,4R)-6-nitro-4-[N-(4-trifluoromethoxyphenyl)-N-(2-methyl-2H-tetrazol-5-ylmethyl)amino]-3-hydroxy-2-methyl-2-dimethoxymethyl-3,4-dihydro-2H-1-benzopyran] | – | 95 | 5 | – | – |
| COC(OC)[C@]1(C)Oc2ccc([N+](=O)[O-])cc2[C@H](N(Cc2nnn(C)n2)c2ccc(OC(F)(F)F)cc2)[C@H]1O [Example 82, (2R,3R,4S)-6-nitro-4-[N-(4-trifluoromethoxyphenyl)-N-(2-methyl-2H-tetrazol-5-ylmethyl)amino]-3-hydroxy-2-methyl-2-dimethoxymethyl-3,4-dihydro-2H-1-benzopyran] | – | 69 | < 2 | 1.3 | – |
| COC(OC)[C@]1(C)Oc2ccc([N+](=O)[O-])cc2[C@@H](N(Cc2nnn(C)n2)c2ccc(OC(F)(F)F)cc2)[C@@H]1O [Example 84, (2R,3S,4R)-6-nitro-4-[N-(4-trifluoromethoxyphenyl)-N-(2-methyl-2H-tetrazol-5-ylmethyl)amino]-3-hydroxy-2-methyl-2-dimethoxymethyl-3,4-dihydro-2H-1-benzopyran] | – | 48 | 5.6 | – | – |
| COC[C@]1(C)Oc2ccc([N+](=O)[O-])cc2[C@@H](N(Cc2nnn(C)n2)c2ccc(F)cc2)[C@@H]1O [Example 99, (2S,3S,4R)-6-nitro-4-[N-(4-fluorophenyl)-N-(2-methyl-2H-tetrazol-5-ylmethyl)amino]-3-hydroxy-2-methyl-2-methoxymethyl-3,4-dihydro-2H-1-benzopyran] | – | 69 | 20.8 | – | – |

Reference: patent US7414068B2, “Benzopyran derivatives substituted with secondary amines including tetrazole, method for the preparation thereof and pharmaceutical compositions containing them” (Dongbu Hannong Chemical Co., Ltd., priority 2002, dated 2008)
